# Measured values from patent US8278072B1, “Method for synthesis of sialylated products using reversible sialylation” (Health Research, Inc., priority 2007, dated 2012).
# Experiments:
# Format in all cases: biochemical
# ST3Gal-II [1] = molecular target: T1, ST3Gal-II (Rattus norvegicus, UniProt Q11205); assay: Reverse sialylation: transfer of [9-3H]NeuAc from sialylated donor to nucleotide phosphates (WGA-agarose); details: nucleotide phosphate 1 mM as acceptor, donor [1]
# T1 construct: purchased Calbiochem
# T1 sequence (Q11205 1-350): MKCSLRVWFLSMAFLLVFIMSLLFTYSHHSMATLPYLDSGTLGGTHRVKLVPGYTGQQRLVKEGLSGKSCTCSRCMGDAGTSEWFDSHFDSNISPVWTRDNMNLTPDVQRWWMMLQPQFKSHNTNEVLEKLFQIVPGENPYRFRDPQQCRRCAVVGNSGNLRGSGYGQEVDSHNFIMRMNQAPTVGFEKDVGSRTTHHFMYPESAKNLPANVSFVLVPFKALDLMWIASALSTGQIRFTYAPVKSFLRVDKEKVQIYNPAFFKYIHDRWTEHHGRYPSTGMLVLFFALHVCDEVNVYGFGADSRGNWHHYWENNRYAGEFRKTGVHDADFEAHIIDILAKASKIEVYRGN
# Experimental: FIG. 1. Nucleotide phosphates as acceptors of radioactivity from [9-^3H]NeuAcα2,3Galβ,13 (GlcNAcβ1,6)GalNAcα-O—Al (Al=Allyl) [[9-^3H] [1]] in the presence of ST3Gal-II (scheme-I). Reaction mixtures (RM) with the following composition were incubated at 37° C. for 21 hours in 100 mM NaCa Codylate buffer, pH6.0: i) RM containing 150 μM (0.4 μCi) [[9-^3H] [1]] (donor) along with 0.8 mU ST3Gal-II but no 5″-CMP; and, ii) RM containing [[9-^3H] [1]] and 1.0 mM 5′-CMP, along with ST3Gal-II. Products formed were fractionated on a WGA-agarose column. […] The feasibility of the reverse reaction is well established in literature. Schematic symbols: ♦:sialic acid, ●:Gal, □:GalNAc, ▪:GlcNAc.
# All enzymatic sialylation reactions were typically carried out in 100 mM NaCa Codylate buffer pH6.0 in the presence of enzyme, synthetic acceptor (at 7.5 mM or as indicated in each experiment) and 0.2 μCi CMP-[9-^3H]NeuAc (NEN-Dupont, 29 mCi/μmol). The concentration of total CMP-NeuAc was adjusted in individual reactions by supplementing with additional cold CMP-NeuAc. Reaction volume was 20 μl. Products formed were separated using four different chromatography procedures (below). In all cases, the radioactive content of isolated products was determined by using 3a70 scintillation cocktail (Research Products International, Mount Prospect, Ill.), and a Beckman LS6500 scintillation counter.
# (§1) a) Biogel P2 chromatography: A Biogel P2 column (Fine Mesh; 1.0×116.0 cm) was used with 0.1 M pyridine acetate (pH5.4) as the eluent at room temperature. […] Fractions of 1.0 ml were collected. The bound material was then eluted with 0.5M GlcNAc or 0.2M Gal in the same buffer. […] Calculation of equilibrium constant, Keq: Equilibrium constant was calculated for selected reversible bimolecular reactions that are denoted by:
# Cloned and purified rat sialyltransferase α2,3(O)ST (ST3Gal-II) is used in many experiments presented in this manuscript. […] In order to determine if the sialylation reaction is reversible (FIG. 1), [9-^3H]NeuAcα2,3Galβ,13(GlcNAcβ1,6)GalNAcα-O—Al (Al=Allyl) [9-^3H[1]] was prepared using ST3Gal-II in the presence of CMP-[9-^3H]NeuAc and the trisaccharide acceptor Galβ1,3(GlcNAcβ1,6)GalNAcα-O—Al, and the radiolabeled product was isolated using Biogel P2 chromatography. […] Two different reaction mixtures were then prepared with: i) [9-^3H[1]] and ST3Gal-II but without 5″-CMP; and ii) [9-^3H[1]] and 5″-CMP along with ST3Gal-II.
# ST3Gal-II [2] = molecular target: T1, ST3Gal-II; assay: Reverse sialylation by ST3Gal-II in presence of citrate or 5′-nucleotides; details: 0.2 mM [3], 7 mM 5′-CMP, 3.0 mM [5], 4 hours
# Experimental: FIG. 5. Effect of 5′-nucleotides on direct sialyltransferase activity (panel a) and reverse sialylation (panel b). a. Varying concentrations of 5′-CDP or 5′-CMP were added to 100 mM acceptor (specified below), 0.15 mM CMP-[9-^3H]NeuAc and either ST3Gal-II (0.2 mU), ST3Gal-III (0.5 mU) or ST6Gal-I (0.2 mU) for 4 h at 37° C. Products were separated using Sep-Pak C18 method. ST3Gal-III activity was measured using acceptor 4-O-MeGalβ1,4GlcNAcβ-O-Bn in the presence of 5′-CDP (●) and 5′-CMP (◯). ST6Gal-I activity was measured using Gal β1,4GlcNAcβ-O-Bn in the presence of 5′-CDP (▴) and 5′-CMP (Δ). ST3Gal-II using D-Fucβ1,3GalNAcα-O-Bn in the presence of 5′-CDP (▪) and 5′-CMP (□). b) Reverse sialylation by ST3Gal-II was measured in reaction mixtures containing 0.2 mM [9-^3H] [3], 7 mM 5′-CMP, ST3Gal-II (2 mU), D-Fucβ1,3GalNAcα-OBn (3.0 mM) and varying doses of either 5′-CDP (▴), 5′-UMP (◯) or 2-deoxy 5′-CMP (●) for 4 hours at 37° C. Reaction product ([9-^3H]NeuAcα2,3DFucβ1,3 GalNAcα-O-Bn) was isolated using Sep-Pak C18 method. In some runs, where was absent, the amount of CMP-NeuAc produced was quantified using the Dowex-1 Formate method in the presence of varying doses of 5′-CDP (▪).
# Besides pH other distinctions were also observed between forward and reverse sialylation. In this regard, citrate ions tended to inhibit forward sialylation but not reverse sialylation activity (Table V). For these studies, the effect of citrate on the forward sialylation activity of ST3Gal-I, ST3Gal-II, ST3Gal-III and ST6Gal-I was examined. Reverse sialylation activity of ST3Gal-II was also measured in terms of: i) the formation of CMP-NeuAc from 5′-CMP; and ii) the transfer of NeuAc from this newly synthesized CMP-NeuAc to another O-glycan. From the data (Table V), it is evident that citrate inhibits the direct sialylation activity of all the enzymes mentioned above. However, both the synthesis of CMP-[9-^3H]NeuAc from 5′-CMP as well as the synthesis of [9-^3H]NeuAcα2,3D-Fucβ1,3 GalNAcα-O-Bn using the newly formed CMP-[9-^3H]NeuAc through reverse sialylation of ST3Gal-II was not inhibited by citrate.
# The effect of 5′-nucleotides on forward sialylation (FIG. 5a) and reverse sialylation (FIG. 5b) were examined. […] The overall formation of [9-^3H]NeuAcα2,3D-Fucβ1,3 GalNAcα-O-Bn by the two-step reverse sialylation process, however, was inhibited by 5′-CDP and this is consistent with the finding that 5′-CDP inhibits forward sialylation in the second step.
# ST3Gal-II [3] = molecular target: T1, ST3Gal-II; assay: Reverse sialylation equilibrium constant (Keq) and 5′-CMP dose dependence; details: acceptor 5′-CMP
# Experimental: FIG. 2. Equilibrium constant. a. Reversible sialyltransferase activity at increasing concentration of 5′-CMP. 0.15 mM of donor [9-^3H]NeuAcα2,3Galβ1,3(4-FGlcNAcβ1,6)GalNAcα-O-Bn [9-^3H[2]] was incubated with varying concentrations of 5′-CMP and 0.15 mU ST3Gal-II under conditions described in FIG. 1 for 2 hours. The consumption of the [9-^3H]NeuAc benzyl glycoside donor was measured by subjecting the incubation mixture to Sep-Pak C18 fractionation, which binds the donor and not CMP-[9-^3H]NeuAc. The reaction proceeded to ½ the maximum extent at 80 μM 5′-CMP. b. Equilibrium constant Keq (=0.35) calculated for data in panel a. c. Varying concentrations of 5′-CMP was sialylated with ST3Gal-II (2.0 mU) using either 0.15 mM (panel c) or 1.5 mM (not shown) sialyl donor [9-^3H]NeuAcα2,3Galβ1,3GalNAcβ1,3Galα-O-Me [9-^3H[3]] for 4 hours. The product CMP-[9-^3H]NeuAc and the unused [9-^3H[3]] were separated and quantitated by Dowex-1-Formate method. d. Equilibrium constant, Keq=98.9. Diamonds denote data from 1.5 mM runs while data from 0.15 mM runs are depicted by squares.
# as §1
# [formula] Here, [9-^3H]D* denotes the radiolabeled donor and D′ is the donor after removal of sialic acid. Similarly, A and [9-^3H]A* denote the acceptor before and after incorporation of NeuAc. In each run, unreacted [9-^3H]D* and product [9-^3H] A* are measured using radioactivity measurements. The equilibrium constant (Keq=kreverse/kforward, dimensionless units) are then determined using the following equation, where terms in square brackets denote concentrations:
# [formula] [D0] and [A0] are initial donor and acceptor concentrations. A plot of [D*]/([D0]−[D*]) versus [A*]/([A0]−[A*]) yields Keq from slope data. Keq<1 implies that the forward reaction is favored and the reaction proceeds to the right side to form [9-^3H]A* efficiently. Liquid Chromatography Coupled with Tandem Mass Spectrometry (LC/MS/MS)
# Similar results were observed upon increasing concentrations of 5′-CMP when [9-^3H]NeuAcα2,3Galβ1,3(4-FGlcNAcβ1,6) GalNAcα-O-Bn [9-^3H[2]] was donor (FIG. 2a, b). The concentration of 5′-CMP that mediated half-maximal transfer of [9-^3H]NeuAc was 80 μM. The bimolecular equilibrium constant (Keq) for this reaction was 0.35 (dimensionless units, Table I). Indeed, the Keq varied depending on the donor and it was 98.9 when the donor was based on the globo glycolipid, [9-^3H]NeuAcα2,3Galβ1,3GalNAcβ1,3 Gala-O-Me [[9-^3H] [3]] (FIG. 2c, d). Upon comparing and [3], it is apparent that reverse sialylation proceeds more effectively in the case of [2]. To further confirm the above estimates of Keq for core-2 based structures, we also calculated this parameter for our previously published data where [9-^3H]CMP-NeuAc was donor and mucin core-2 tetrasaccharide Galβ1,4GlcNAcβ1,6(Galβ1,3)GalNAcα-O-Bn was acceptor. In this case, Keq measured with respect to the rate of mucin core-2 sialylation was 5.55 (data not shown), which translates to a reverse sialylation Keq of 0.18.
Incorporation of [9-3H]NeuAc expressed as percent of the CPM incorporated into 5′-CMP (ST3Gal-II [1]),"Keq (dimensionless units), reverse sialylation equilibrium constant (ST3Gal-II [3]; translated from Keq 5.55 of mucin core-2 sialylation, previously published data)","Keq (dimensionless units), reverse sialylation equilibrium constant (ST3Gal-II [3]; sialylated donor)",Compound,"Effect on overall formation of [9-3H]NeuAcα2,3D-Fucβ1,3GalNAcα-O-Bn by two-step reverse sialylation (ST3Gal-II [2])"
26.3%,,,Nc1ccn([C@H]2C[C@H](O)[C@@H](COP(=O)(O)O)O2)c(=O)n1 [2′ deoxy 5′-CMP],did not alter the extent of product formation
55.9%,,,O=c1ccn([C@@H]2O[C@H](COP(=O)(O)O)[C@@H](O)[C@H]2O)c(=O)[nH]1 [5′-UMP],did not alter the extent of product formation
,0.18,,"[9-^3H]NeuAcα2,3Gal(1,3(Gal(1,4GlcNAc(1,6)GalNAc(-O-Bn",
,,98.9,"[9-^3H]NeuAcα2,3Galβ1,3GalNAcβ1,3Galα-O-Me [[3]]",
